pIC50: −log10 of the molar value.
How the values were obtained:
[1] = test system: mono-methyl arginine in RKO cells; experiment: RKO Methylation Assay, In Cell Western (ICW) for mono-methyl arginine and DNA content; type: cell-based; settings: Homo sapiens, RKO, 72 h, RKO cells, 72 hours, mono-methyl arginine, percent activation; single experiment or average of multiple experiments; read-out: EC30 (In Cell Western data, Numerical)
Excerpt: RKO adherent cells were purchased from ATCC (American Type Culture Collection), Manassas, Va., USA. DMEM/Glutamax medium, penicillin-streptomycin, heat inactivated fetal bovine serum, 0.05% trypsin and D-PBS were purchased from Life Technologies, Grand Island, N.Y., USA. Odyssey blocking buffer, 800CW goat anti-rabbit IgG (H+L) antibody, and Licor Odyssey infrared scanner were purchased from Licor Biosciences, Lincoln, Nebr., USA. Mono-methyl arginine antibody was purchased from Cell Signaling Technology, Danvers, Mass., USA. Methanol was purchased from VWR, Franklin, Mass., USA. 10% Tween 20 was purchased from KPL, Inc., Gaithersburg, Md., USA. DRAQ5 was purchased from Biostatus Limited, Leicestershire, UK.
RKO adherent cells were maintained in growth medium (DMEM/Glutamax medium supplemented with 10% v/v heat inactivated fetal bovine serum and 100 units/mL penicillin-streptomycin) and cultured at 37° C. under 5% CO2.
Cell Treatment, in Cell Western (ICW) for Detection of Mono-Methyl Arginine and DNA Content.
RKO cells were seeded in assay medium at a concentration of 20,000 cells per mL to a poly-D-lysine coated 384 well culture plate (BD Biosciences 356697) with 50 μL per well. Compound (100 nL) from a 96-well source plate was added directly to 384 well cell plate. Plates were incubated at 37° C., 5% CO2 for 72 hours. After three days of incubation, plates were brought to room temperature outside of the incubator for ten minutes and blotted on paper towels to remove cell media. 50 μL of ice cold 100% methanol was added directly to each well and incubated for 30 min at room temperature. After 30 min, plates were transferred to a Biotek EL406 plate washer and washed 2 times with 100 μL per well of wash buffer (1×PBS). Next 60 μL per well of Odyssey blocking buffer (Odyssey Buffer with 0.1% Tween 20 (v/v)) were added to each plate and incubated 1 hour at room temperature. Blocking buffer was removed and 20 μL per well of primary antibody was added (mono-methyl arginine diluted 1:200 in Odyssey buffer with 0.1% Tween 20 (v/v)) and plates were incubated overnight (16 hours) at 4° C. Plates were washed 5 times with 100 μL per well of wash buffer. Next 20 μL per well of secondary antibody was added (1:200 800CW goat anti-rabbit IgG (H+L) antibody, 1:1000 DRAQ5 (Biostatus limited) in Odyssey buffer with 0.1% Tween 20 (v/v)) and incubated for 1 hour at room temperature. The plates were washed 5 times with 100 μL per well wash buffer then 2 times with 100 μL per well of water. Plates were allowed to dry at room temperature then imaged on the Licor Odyssey machine which measures integrated intensity at 700 nm and 800 nm wavelengths. Both 700 and 800 channels were scanned.
First, the ratio for each well was determined by:
Each plate included fourteen control wells of DMSO only treatment (minimum activation) as well as fourteen control wells for maximum activation treated with 20 μM of a reference compound. The average of the ratio values for each control type was calculated and used to determine the percent activation for each test well in the plate. Reference compound was serially diluted three-fold in DMSO for a total of nine test concentrations, beginning at 20 μM. Percent activation was determined and EC30 curves were generated using triplicate wells per concentration of compound.

human PRMT3 = human PRMT3 (Homo sapiens, UniProt O60678); experiment: PRMT3 Biochemical Assay (3H-SAM Flashplate, peptide substrate); settings: single experiment or average of multiple experiments
Excerpt: S-adenosylmethionine (SAM), S-adenosylhomocysteine (SAH), bicine, Tween20, dimethylsulfoxide (DMSO), bovine skin gelatin (BSG), isopropyl-β-D-thiogalactopyranoside (IPTG), and Tris(2-carboxyethyl)phosphine hydrochloride solution (TCEP) were purchased from Sigma-Aldrich at the highest level of purity possible. ^3H-SAM was purchase from American Radiolabeled Chemicals with a specific activity of 80 Ci/mmol. 384-well streptavidin Flashplates were purchased from PerkinElmer.
Peptide containing the classic RMT substrate motif was synthesized with an N-terminal linker-affinity tag motif and a C-terminal amide cap by 21st Century Biochemicals. The peptide was purified by high-performance liquid chromatography (HPLC) to greater than 95% purity and confirmed by liquid chromatography mass spectrometry (LC-MS). The sequence was Biot-Ahx-[…]-amide (SEQ ID NO.:11).
Full-length human PRMT3 (NM_005788.3) isoform 1 transcript clone was amplified from an HEK 293 cDNA library and subcloned into pGEX-KG (GE Life Sciences). The resulting construct encodes an N-terminal GST tag and a thrombin cleavage sequence ([…] […] […] […]) (SEQ ID NO.: 12) fused directly to Cys 2 of PRMT3.
E. coli (BL21(DE3) Gold, Stratagene) made competent by the CaCl2 method were transformed with the PRMT3 construct and ampicillin selection. Protein over-expression was accomplished by growing the PRMT3 expressing E. coli clone and inducing expression with 0.3 mM IPTG at 16° C. The culture was grown for 12 hours, harvested by centrifugation, and stored at −80° C. for purification.
GST-tagged PRMT3 was eluted with 50 mM Tris, 2 mM glutathione, pH 7.1 and 50 mM Tris, 20 mM glutathione, pH 7.1. Pooled fractions were dialysed in 20 mM Tris, 50 mM NaCl, 5% glycerol, 1 mM EDTA, 1 mM DTT, pH7.5 (Buffer B) and applied to a Q Sepharose Fast Flow column. GST-tagged PRMT3 was eluted by 500 mM NaCl in buffer B. Pooled fractions were dialyzed in 25 mM phosphate buffer, 100 mM NaCl, 5% glycerol, 2 mM DTT, pH 6.8 (Buffer C) and loaded on to a ceramic hydroxyapatite column. GST-tagged PRMT3 eluted with 25-400 mM phosphate in buffer C. Protein was concentrated and buffer was exchanged to 20 mM Tris, 150 mM NaCl, 5% glycerol, 5 mM β-mercaptoethanol, pH7.8 by ultrafiltration. The purity of recovered protein was 70%.
General Procedure for PRMT3 Enzyme Assays on Peptide Substrates.
The assays were all performed in a buffer consisting of 20 mM Bicine (pH=7.6), 1 mM TCEP, 0.005% BSG, and 0.002% Tween 20, prepared on the day of use. Compounds in 100% DMSO (1 ul) were spotted into a polypropylene 384-well V-bottom plates (Greiner) using a Platemate Plus outfitted with a 384-channel head (Thermo Scientific). DMSO (1 ul) was added to Columns 11, 12, 23, 24, rows A-H for the maximum signal control and 1 ul of SAH, a known product and inhibitor of PRMT3, was added to columns 11, 12, 23, 24, rows I-P for the minimum signal control. A cocktail (40 ul) containing the PRMT3 enzyme was added by Multidrop Combi (Thermo-Fisher). The compounds were allowed to incubate with PRMT3 for 30 min at room temperature, then a cocktail (10 ul) containing SAM and peptide was added to initiate the reaction (final volume=51 ul). The final concentrations of the components were as follows: PRMT3 was 0.5 nM, ^3H-SAM was 100 nM, non-radiolabeled SAM was 1.8 uM, peptide was 330 nM, SAH in the minimum signal control wells was 1 mM, and the DMSO concentration was 2%. The assays were stopped by the addition of potassium chloride (10 ul) to a final concentration of 100 mM. 50 ul of the reaction in the 384-well polypropylene plate was then transferred to a 384-well Flashplate and the biotinylated peptides were allowed to bind to the streptavidin surface for at least 1 hour before being washed once with 0.1% Tween20 in a Biotek ELx405 plate washer. […]

human PRMT3, sequence (O60678 with tags, fused parts or gaps): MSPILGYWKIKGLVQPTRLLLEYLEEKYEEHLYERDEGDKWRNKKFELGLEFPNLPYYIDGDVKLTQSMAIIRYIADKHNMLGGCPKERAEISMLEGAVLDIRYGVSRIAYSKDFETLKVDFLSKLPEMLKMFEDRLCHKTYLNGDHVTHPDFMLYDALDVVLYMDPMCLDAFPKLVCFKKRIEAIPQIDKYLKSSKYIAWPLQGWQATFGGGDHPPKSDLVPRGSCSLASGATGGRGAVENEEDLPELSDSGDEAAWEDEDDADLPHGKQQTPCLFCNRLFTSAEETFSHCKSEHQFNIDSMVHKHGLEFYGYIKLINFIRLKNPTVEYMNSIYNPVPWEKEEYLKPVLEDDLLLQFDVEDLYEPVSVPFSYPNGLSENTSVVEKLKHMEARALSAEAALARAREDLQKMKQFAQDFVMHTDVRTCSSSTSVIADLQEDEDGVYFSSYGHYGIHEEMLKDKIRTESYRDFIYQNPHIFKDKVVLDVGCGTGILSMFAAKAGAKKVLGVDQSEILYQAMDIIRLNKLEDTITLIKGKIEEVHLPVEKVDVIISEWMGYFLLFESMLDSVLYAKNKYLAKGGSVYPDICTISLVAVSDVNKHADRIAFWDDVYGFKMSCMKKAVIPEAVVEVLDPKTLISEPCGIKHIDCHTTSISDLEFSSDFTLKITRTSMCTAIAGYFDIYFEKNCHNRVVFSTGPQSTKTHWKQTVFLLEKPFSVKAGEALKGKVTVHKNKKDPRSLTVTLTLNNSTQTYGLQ

pIC50 (human PRMT3): 5.76
Compound: CC(C)Cc1ccc(-c2n[nH]cc2CN(C)CCN)cc1 [Compound 165]
EC30 [1]: 660 nM

Source: patent publication US9776972B2, “Pyrazole derivatives as arginine methyltransferase inhibitors and uses thereof” (priority 2013, dated 2017)
